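Method: 48-hour compound exposure of cells in 96-well plates, five concentrations, linear interpolation of endpoints. Here, GI50 denotes the concentration required for 50% inhibition of growth. TGI marks complete inhibition of growth.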
Columns and labels:
Test in all cases: NCI-60 cell line screen, 48 h
[1] = system: SK-MEL-2 melanoma
[2] = system: M14 melanoma
[3] = system: UACC-257 melanoma
[4] = system: 786-0 renal
[5] = system: TK-10 renal
[6] = system: SR leukemia
[7] = system: HOP-62 NSCLC
[8] = system: HOP-92 NSCLC
[9] = system: RPMI-8226 leukemia
[10] = system: RXF 393 renal
[11] = system: T-47D breast
[12] = system: CAKI-1 renal
[13] = system: UACC-62 melanoma
[14] = system: SK-OV-3 ovarian
[15] = system: CCRF-CEM leukemia
[16] = system: NCI-H23 lung
[17] = system: ACHN renal
[18] = system: NCI-H226 lung
[19] = system: HCC-2998 colon
[20] = system: NCI-H522 lung
[21] = system: NCI/ADR-RES ovarian
[22] = system: MCF7 breast
[23] = system: UO-31 renal
[24] = system: OVCAR-4 ovarian
[25] = system: SF-295 CNS
[26] = system: COLO 205 colon
[27] = system: EKVX NSCLC
[28] = system: HCT-15 colon
[29] = system: IGROV1 ovarian
[30] = system: NCI-H460 lung
[31] = system: A549 NSCLC
[32] = system: HS 578T breast
[33] = system: MDA-MB-435
[34] = system: SN12C renal
[35] = system: MDA-MB-231 breast
[36] = system: OVCAR-5 ovarian
[37] = system: SNB-75 CNS
[38] = system: MOLT-4 leukemia
[39] = system: SK-MEL-5 melanoma
[40] = system: HT29 colon
[41] = system: SNB-19 CNS
[42] = system: HCT-116 colon
[43] = system: SF-539 CNS
[44] = system: PC-3 prostate
[45] = system: A498 renal
[46] = system: KM12 colon
[47] = system: DU-145 prostate
[48] = system: OVCAR-3 ovarian
[49] = system: BT-549 breast
[50] = system: U251 CNS
[51] = system: K-562 leukemia
[52] = system: OVCAR-8 ovarian
[53] = system: HL-60(TB) leukemia
[54] = system: SK-MEL-28 melanoma
[55] = system: MALME-3M melanoma
[56] = system: SF-268 CNS
[57] = system: SW-620 colon

## CN1CCc2c(sc3ncnc(N/N=C/c4ccc(Cl)c(Cl)c4)c23)C1
[1]
  GI50: 38.4 µM
  TGI: > 100 µM
[2]
  GI50: 17.6 µM
  TGI: 43.8 µM
[3]
  GI50: 14.8 µM
  TGI: 30.2 µM
[4]
  GI50: 12.4 µM
  TGI: 32.1 µM
[5]
  GI50: 21.2 µM
  TGI: 36.1 µM
[6]
  GI50: 2.52 µM
  TGI: 8.04 µM
[7]
  GI50: 10.2 µM
  TGI: 41.4 µM
[8]
  GI50: 7.63 µM
  TGI: 34.3 µM
[9]
  GI50: 17 µM
  TGI: 66.4 µM
[10]
  GI50: 12.8 µM
  TGI: 28.1 µM
[11]
  GI50: 19.9 µM
  TGI: 49.9 µM
[12]
  GI50: 15.2 µM
  TGI: 29.1 µM
[13]
  GI50: 14.9 µM
  TGI: 29.6 µM
[14]
  GI50: 17.1 µM
  TGI: 34.8 µM
[15]
  GI50: 14 µM
  TGI: > 100 µM
[16]
  GI50: 13.5 µM
  TGI: 31.2 µM
[17]
  GI50: 15.1 µM
  TGI: 31.5 µM
[18]
  GI50: 77.9 µM
  TGI: > 100 µM
[19]
  GI50: 9.8 µM
  TGI: 25.7 µM
[20]
  GI50: 11.7 µM
  TGI: 28.3 µM
[21]
  GI50: 14.3 µM
  TGI: 34.1 µM
[22]
  GI50: 3.94 µM
  TGI: 18.6 µM
[23]
  GI50: 10.1 µM
  TGI: 22.7 µM
[24]
  GI50: 15.5 µM
  TGI: 30.9 µM
[25]
  GI50: 13 µM
  TGI: 27.9 µM
[26]
  GI50: 10.6 µM
  TGI: 27.5 µM
[27]
  GI50: 19.1 µM
  TGI: 39 µM
[28]
  GI50: 6.61 µM
  TGI: 22.2 µM
[29]
  GI50: 15.6 µM
  TGI: 31.8 µM
[30]
  GI50: 16.4 µM
  TGI: 34.7 µM
[31]
  GI50: 11 µM
  TGI: 32.1 µM
[32]
  GI50: 22.1 µM
  TGI: 65.8 µM
[33]
  GI50: 18.2 µM
  TGI: 34.4 µM
[34]
  GI50: 11.5 µM
  TGI: 26.3 µM
[35]
  GI50: 12.4 µM
  TGI: 26.8 µM
[36]
  GI50: 15.3 µM
  TGI: 30.9 µM
[37]
  GI50: 14.6 µM
  TGI: 28.6 µM
[38]
  GI50: 11.9 µM
  TGI: 43.6 µM
[39]
  GI50: 13.7 µM
  TGI: 28.5 µM
[40]
  GI50: 13.6 µM
  TGI: 29.3 µM
[41]
  GI50: 15.4 µM
  TGI: 35.6 µM
[42]
  GI50: 13.7 µM
  TGI: 44.4 µM
[43]
  GI50: 13.8 µM
  TGI: 29.8 µM
[44]
  GI50: 18.1 µM
  TGI: 43.9 µM
[45]
  GI50: 19.9 µM
  TGI: 35.6 µM
[46]
  GI50: 17.9 µM
  TGI: 34 µM
[47]
  GI50: 14.5 µM
  TGI: 28.5 µM
[48]
  GI50: 15.7 µM
  TGI: 30.1 µM
[49]
  GI50: 14 µM
  TGI: 33 µM
[50]
  GI50: 17.1 µM
  TGI: 35.8 µM
[51]
  GI50: 12.5 µM
  TGI: 57 µM
[52]
  GI50: 14.1 µM
  TGI: 39.7 µM
[53]
  GI50: 2.04 µM
  TGI: 4.83 µM
[54]
  GI50: 13.7 µM
  TGI: 29.8 µM
[55]
  GI50: 14.1 µM
  TGI: 28.5 µM
[56]
  GI50: 16.5 µM
  TGI: 39.4 µM
[57]
  GI50: 12.1 µM
  TGI: 29.8 µM
